Experiment: Stability of solvate form on exposure to the lab atmosphere
Type: physicochemical
Settings: 21° C., 30% relative humidity, material from wet suspension
Method: 20 mg of Form 4 was added to a small vessel. 0.711 ml of Form 4 saturated MeOH solution was added to the vessel making a suspension. The suspension was stirred for 7 days at 25° C. Thereafter the suspension was stirred at 21° C. for 1½ months. The wet suspension was analysed by XRPD (Cu-source) giving substantially the following d-values. […] For diffractogram see FIG. 8.
20 mg of Form 4 was added to a small vessel. 0.711 ml MTBE was added to the vessel making a suspension. The suspension was stirred for 7 days at 25° C. The wet suspension was analysed by XRPD (Cu-source) giving substantially the following d-values.

| Compound | stability / form transformation on exposure to the lab atmosphere |
| --- | --- |
| CC(C)(C)c1c(C(=O)NC2C3CC4CC(C3)CC2C4)cnn1-c1ccc(C(=O)O)cc1 (centres unmarked) [MeOH Solvate, 4-[4-(2-adamantylcarbamoyl)-5-tert-butyl-pyrazol-1-yl]benzoic acid] | rapidly transforms to Form 3 |
| CC(C)(C)c1c(C(=O)NC2C3CC4CC(C3)CC2C4)cnn1-c1ccc(C(=O)O)cc1 (centres unmarked) [MTBE Solvate, 4-[4-(2-adamantylcarbamoyl)-5-tert-butyl-pyrazol-1-yl]benzoic acid] | transforms to Hydrate |
